Data on 11 compounds can be found in patent US20260295053A1, “COMPOUNDS FOR DEGRADATION AND INHIBITION OF KRAS (G12D) PROTEIN” (Shenzhen Ionova Life Science Co., Ltd., priority 2023, published 2026).

In experiment [1] the target is T1, KRAS (G12D) (Homo sapiens, UniProt P01116, G12D).
T1 construct: in-cell western with KRAS G12D antibody after 24 h
The experiment is described as follows: KRAS (G12D) cellular degradation assay in AsPC-1 cells. The format is cell-based. Conditions: 24 hours, antibody fluorescence (Odyssey CLX), DC50 half-maximal degradation concentration. In outline:
(§1)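 Half-maximal degradation (DC50) and inhibition (IC50) concentrations are fitted from dose-response curves spanning […] to 1.5 nM final. KRAS G12D loss is measured by fluorescent antibody staining with β-actin reference after 24 h; growth is measured by ATP luminescence after a 6-day exposure.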

The test system of experiment [2] is AsPC-1 cells. Nature of the experiment: AsPC-1 cell proliferation assay (CellTiter Glo). The experiment is classed as cell-based. Conditions: Homo sapiens, ASPC1, 144 h, 6 days. In outline:
as §1
For orientation: ATP-based viability assays read luminescence as a measure of living cells.

T1 sequence (P01116 1-188 isoform P01116-2 G12D): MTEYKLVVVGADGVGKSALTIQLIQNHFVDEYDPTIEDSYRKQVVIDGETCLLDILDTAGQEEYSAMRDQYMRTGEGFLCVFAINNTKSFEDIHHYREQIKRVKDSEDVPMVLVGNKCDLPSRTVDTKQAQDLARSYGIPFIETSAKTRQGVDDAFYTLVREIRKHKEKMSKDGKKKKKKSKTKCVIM

Broadly, the DC50 is the concentration giving 50% degradation. High values mean degradation only at high concentration, low ones degradation at low concentration. Usually IC50 stands for the concentration at which inhibition is half-maximal. Regarding `CCn1nccc1-c1ccc([C@H](CO)NC(=O)[C@@H]2C[C@@H](O)CN2C(=O)[C@H](C(C)C)n2cc(-c3ccc(COc4c(-c5c(C)c(F)cc6[nH]ncc56)c(C5CC5)cc5c(N6C[C@@H]7C[C@H]6CN7)nc(OCC(F)(F)COC)nc45)cc3)nn2)cc1` [Example 47, (2S,4R)-1-((2S)-2-(4-(4-(((4-((1S,4S)-2,5-diazabicyclo[2.2.1]heptan-2-yl)-6-cyclopropyl-2-(2,2-difluoro-3-methoxypropoxy)-7-(6-fluoro-5-methyl-1H-indazol-4-yl)quinazolin-8-yl)oxy)methyl)phenyl)-1H-1,2,3-triazol-1-yl)-3-methylbutanoyl)-N—((R)-1-(4-(1-ethyl-1H-pyrazol-5-yl)phenyl)-2-hydroxyethyl)-4-hydroxypyrrolidine-2-carboxamide], the DC50 in experiment [1] is below 10 nM. Moreover, in experiment [2], the half-inhibitory concentration (IC50) was below 10 nM.

In experiment [1], `CCn1nccc1-c1ccc([C@H](CO)NC(=O)[C@@H]2C[C@@H](O)CN2C(=O)[C@H](C(C)C)n2cc(-c3ccc(COc4c(-c5c(C)c(F)cc6[nH]ncc56)c(C5CC5)cc5c(N6C[C@@H]7C[C@H]6CN7)nc(OCC(OC)C(F)(F)F)nc45)cc3)nn2)cc1` (stereo partly drawn) [Example 48, (2S,4R)-1-((2S)-2-(4-(4-(((4-((1S,4S)-2,5-diazabicyclo[2.2.1]heptan-2-yl)-6-cyclopropyl-7-(6-fluoro-5-methyl-1H-indazol-4-yl)-2-(3,3,3-trifluoro-2-methoxypropoxy)quinazolin-8-yl)oxy)methyl)phenyl)-1H-1,2,3-triazol-1-yl)-3-methylbutanoyl)-N—((R)-1-(4-(1-ethyl-1H-pyrazol-5-yl)phenyl)-2-hydroxyethyl)-4-hydroxypyrrolidine-2-carboxamide] gave a DC50 below 10 nM. In experiment [2], this compound came in with an IC50 below 10 nM.

For the compound `Cc1ncsc1-c1ccc([C@H](CO)NC(=O)[C@@H]2C[C@@H](O)CN2C(=O)[C@H](C(C)C)n2cc(-c3ccc(COc4c(-c5c(C)c(F)cc6[nH]ncc56)c(C5CC5)cc5c(N6CC7CCC(C6)N7)nc(OC6CCOCC6)nc45)cc3)nn2)cc1` [Example 49, (2S,4R)-1-((2S)-2-(4-(4-(((4-(3,8-diazabicyclo[3.2.1]octan-3-yl)-6-cyclopropyl-7-(6-fluoro-5-methyl-1H-indazol-4-yl)-2-((tetrahydro-2H-pyran-4-yl)oxy)quinazolin-8-yl)oxy)methyl)phenyl)-1H-1,2,3-triazol-1-yl)-3-methylbutanoyl)-4-hydroxy-N—((R)-2-hydroxy-1-(4-(4-methylthiazol-5-yl)phenyl)ethyl)pyrrolidine-2-carboxamide], the DC50 in experiment [1] was below 10 nM. The compound also showed an IC50 in experiment [2] below 10 nM.

In experiment [1], `CCn1nccc1-c1ccc([C@H](CO)NC(=O)[C@@H]2C[C@@H](O)CN2C(=O)[C@H](C(C)C)n2cc(-c3ccc(COc4c(-c5c(C)c(F)cc6[nH]ncc56)c(C5CC5)cc5c(N6C[C@@H]7C[C@H]6CN7)nc(OCC6COC7OCCC67)nc45)cc3)nn2)cc1` (stereo partly drawn) [Example 51, (2S,4R)-1-((2S)-2-(4-(4-(((4-((1S,4S)-2,5-diazabicyclo[2.2.1]heptan-2-yl)-6-cyclopropyl-7-(6-fluoro-5-methyl-1H-indazol-4-yl)-2-((hexahydrofuro[2,3-b]furan-3-yl)methoxy)quinazolin-8-yl)oxy)methyl)phenyl)-1H-1,2,3-triazol-1-yl)-3-methylbutanoyl)-N—((R)-1-(4-(1-ethyl-1H-pyrazol-5-yl)phenyl)-2-hydroxyethyl)-4-hydroxypyrrolidine-2-carboxamide] registered a DC50 below 10 nM. In experiment [2], this compound showed a half-inhibitory concentration (IC50) below 10 nM.

In experiment [1], `CCn1nccc1-c1ccc([C@H](CO)NC(=O)[C@@H]2C[C@@H](O)CN2C(=O)[C@H](C(C)C)n2cc(-c3ccc(COc4c(-c5c(C)c(F)cc6[nH]ncc56)c(C5CC5(F)F)cc5c(N6C[C@@H]7C[C@H]6CN7)nc(OC[C@H](C)OC)nc45)cc3)nn2)cc1` (stereo partly drawn) [Example 52, (2S,4R)-1-((2S)-2-(4-(4-(((4-((1S,4S)-2,5-diazabicyclo[2.2.1]heptan-2-yl)-6-(2,2-difluorocyclopropyl)-7-(6-fluoro-5-methyl-1H-indazol-4-yl)-2-((S)-2-methoxypropoxy)quinazolin-8-yl)oxy)methyl)phenyl)-1H-1,2,3-triazol-1-yl)-3-methylbutanoyl)-N—((R)-1-(4-(1-ethyl-1H-pyrazol-5-yl)phenyl)-2-hydroxyethyl)-4-hydroxypyrrolidine-2-carboxamide] returned a DC50 of 10 to 100 nM. In addition, the IC50 in experiment [2] was below 10 nM.

In experiment [1], `CCn1nccc1-c1ccc([C@H](CO)NC(=O)[C@@H]2C[C@@H](O)CN2C(=O)[C@H](C(C)C)n2cc(-c3ccc(COc4c(-c5c(C)c(F)cc6[nH]ncc56)c(C5CC5)cc5c(N6C[C@@H]7C[C@H]6CN7)nc(OCC6(C(F)F)CC6)nc45)cc3)nn2)cc1` [Example 53, (2S,4R)-1-((2S)-2-(4-(4-(((4-((1S,4S)-2,5-diazabicyclo[2.2.1]heptan-2-yl)-6-cyclopropyl-2-((1-(difluoromethyl)cyclopropyl)methoxy)-7-(6-fluoro-5-methyl-1H-indazol-4-yl)quinazolin-8-yl)oxy)methyl)phenyl)-1H-1,2,3-triazol-1-yl)-3-methylbutanoyl)-N—((R)-1-(4-(1-ethyl-1H-pyrazol-5-yl)phenyl)-2-hydroxyethyl)-4-hydroxypyrrolidine-2-carboxamide] came in with a DC50 below 10 nM. In experiment [2], this compound registered a 50% inhibitory concentration (IC50) below 10 nM.

Regarding `CO[C@@H](C)COc1nc(N2C[C@@H]3C[C@H]2CN3)c2cc(C3CC3)c(-c3c(C)c(F)cc4[nH]ncc34)c(OCc3ccc(-c4cn([C@H](C(=O)N5C[C@H](O)C[C@H]5C(=O)N[C@H](C#Cc5ccc6ncsc6c5)CO)C(C)C)nn4)cc3)c2n1` [Example 54, (2S,4R)-1-((2S)-2-(4-(4-(((4-((1S,4S)-2,5-diazabicyclo[2.2.1]heptan-2-yl)-6-cyclopropyl-7-(6-fluoro-5-methyl-1H-indazol-4-yl)-2-((S)-2-methoxypropoxy)quinazolin-8-yl)oxy)methyl)phenyl)-1H-1,2,3-triazol-1-yl)-3-methylbutanoyl)-N—((R)-4-(benzo[d]thiazol-6-yl)-1-hydroxybut-3-yn-2-yl)-4-hydroxypyrrolidine-2-carboxamide], the DC50 in experiment [1] lay within 10 to 100 nM. Besides, the IC50 in experiment [2] is below 10 nM.

Consider `CCn1nccc1-c1ccc([C@H](CC(=O)NC)NC(=O)[C@@H]2C[C@@H](O)CN2C(=O)[C@H](C(C)C)n2cc(-c3ccc(COc4c(-c5c(C)c(F)cc6[nH]ncc56)c(C5CC5)cc5c(N6C[C@@H]7C[C@H]6CN7)nc(OC[C@H](C)OC)nc45)cc3)nn2)cc1` [Example 55, (2S,4R)-1-((2S)-2-(4-(4-(((4-((1S,4S)-2,5-diazabicyclo[2.2.1]heptan-2-yl)-6-cyclopropyl-7-(6-fluoro-5-methyl-1H-indazol-4-yl)-2-((S)-2-methoxypropoxy)quinazolin-8-yl)oxy)methyl)phenyl)-1H-1,2,3-triazol-1-yl)-3-methylbutanoyl)-N—((S)-1-(4-(1-ethyl-1H-pyrazol-5-yl)phenyl)-3-(methylamino)-3-oxopropyl)-4-hydroxypyrrolidine-2-carboxamide], for which the DC50 in experiment [1] is below 10 nM. The IC50 in experiment [2] is below 10 nM.

For `CCn1nccc1-c1ccc([C@H](CO)NC(=O)[C@@H]2C[C@@H](O)CN2C(=O)[C@H](C(C)C)n2cc(-c3ccc(COc4c(-c5c(C)c(F)cc6[nH]ncc56)c(C5CC5)cc5c(N6C[C@@H]7C[C@H]6CN7)nc(O[C@H]6CO[C@H]7OCC[C@H]76)nc45)cc3)nn2)cc1` [Example 56, (2S,4R)-1-((2S)-2-(4-(4-(((4-((1S,4S)-2,5-diazabicyclo[2.2.1]heptan-2-yl)-6-cyclopropyl-7-(6-fluoro-5-methyl-1H-indazol-4-yl)-2-(((3R,3aS,6aR)-hexahydrofuro[2,3-b]furan-3-yl)oxy)quinazolin-8-yl)oxy)methyl)phenyl)-1H-1,2,3-triazol-1-yl)-3-methylbutanoyl)-N—((R)-1-(4-(1-ethyl-1H-pyrazol-5-yl)phenyl)-2-hydroxyethyl)-4-hydroxypyrrolidine-2-carboxamide], in experiment [1], the DC50 was below 10 nM. The compound further gave an IC50 in experiment [2] below 10 nM.

The compound `CCn1nccc1-c1ccc([C@H](CO)NC(=O)[C@@H]2C[C@@H](O)CN2C(=O)[C@H](C(C)C)n2cc(-c3ccc(COc4c(-c5c(C)c(F)c(F)c6[nH]ncc56)c(C5CC5)cc5c(N6C[C@@H]7C[C@H]6CN7)nc(OC[C@H](C)OC)nc45)cc3)nn2)cc1` [Example 57, (2S,4R)-1-((2S)-2-(4-(4-(((4-((1S,4S)-2,5-diazabicyclo[2.2.1]heptan-2-yl)-6-cyclopropyl-7-(6,7-difluoro-5-methyl-1H-indazol-4-yl)-2-((S)-2-methoxypropoxy)quinazolin-8-yl)oxy)methyl)phenyl)-1H-1,2,3-triazol-1-yl)-3-methylbutanoyl)-N—((R)-1-(4-(1-ethyl-1H-pyrazol-5-yl)phenyl)-2-hydroxyethyl)-4-hydroxypyrrolidine-2-carboxamide] gave a DC50 in experiment [1] below 10 nM. In experiment [2], the IC50 is below 10 nM.

`CCn1nccc1-c1ccc([C@H](CO)NC(=O)[C@@H]2C[C@@H](O)CN2C(=O)[C@H](C(C)C)n2cc(-c3ccc(COc4c(-c5c(C)c(F)cc6[nH]ncc56)c(C5CC5)cc5c(N6C[C@@H]7C[C@H]6CN7)nc(OC(COC)C(F)(F)F)nc45)cc3)nn2)cc1` (stereo partly drawn) [Example 58, (2S,4R)-1-((2S)-2-(4-(4-(((4-((1S,4S)-2,5-diazabicyclo[2.2.1]heptan-2-yl)-6-cyclopropyl-7-(6-fluoro-5-methyl-1H-indazol-4-yl)-2-((1,1,1-trifluoro-3-methoxypropan-2-yl)oxy)quinazolin-8-yl)oxy)methyl)phenyl)-1H-1,2,3-triazol-1-yl)-3-methylbutanoyl)-N—((R)-1-(4-(1-ethyl-1H-pyrazol-5-yl)phenyl)-2-hydroxyethyl)-4-hydroxypyrrolidine-2-carboxamide] came in with a DC50 in experiment [1] below 10 nM. Further, the IC50 in experiment [2] is below 10 nM.
